Tested on: normal and CF epithelial cell lines
Assay: Transfection of sub-confluent and confluent airway epithelial cell lines (summary of description)
Type: cell-based, human
Text: However, all the cell lines tested were transfected under conventional conditions for transfection, that is to say, the cells were sub-confluent. It has been reported that mitosis is required for efficient transformation using cationic liposomes and also when using peptide-based transformation systems (Wilke, 1996; Tseng 1999; Brunner 2000). Confluent cells and/or cells treated with inhibitors of DNA polymerase such as aphidicolin are non-mitotic and transfect with polycationic vectors with low efficiency. The major cell limiting step is considered to be delivery of the transfected nucleic acid into the nucleus. Transportation of the nucleic acid through the cytoplasm to the nucleus is slow and the pores in the nuclear envelope are too small to permit rapid entry of the transfected nucleic acid. It is generally accepted that sub-confluent cultures, in which the cells are dividing, should be used for transfection. We attempted transfection with the transfection complexes of WO98/54347 but using cell line cultures that were confluent i.e. effectively non-mitotic.
The present invention is based on the surprising observation that the use of EGTA with a transfection vector comprising DNA, an integrin-binding component, a polycationic nucleic acid-binding component, and a lipid component, enhances transfection efficiency of confluent cells, which are slowly dividing or non-dividing i.e. substantially non-mitotic cells, in vitro and in vivo.
In accordance with the present invention integrin-targeted transfection vector complexes comprising peptide 6 above, which is an α5β1-targeted peptide, linked to oligolysine comprising 16 lysines i.e. K16, (component I); lipofectin (component L); and a reporter gene (component D) were used with EGTA for transfection. Sub-confluent normal and CF epithelial cell lines were transfected with the green fluorescent report gene and transfection efficiencies of 40 to 50% were achieved. Cells were then cultured in confluent monolayers to model more closely airway structure. […]

O=C(O)CN(CCOCCOCCN(CC(=O)O)CC(=O)O)CC(=O)O [EGTA, ethylene glycol-bis(β-aminoethyl ether)-N,N,N′,N′-tetraacetic acid]
effect on transfection efficiency of sub-confluent cells: no effect | increase of transfection efficiency of airway epithelial cells in vitro (green fluorescent protein and luciferase reporter genes): about four-fold | transfection efficiency, confluent cells co-treated with EGTA (green fluorescent reporter gene): 20 to 30%

Source: patent publication US20040014217A1, “Methods of transfection” (priority 2000, published 2004)
